Experimental data published in ChEMBL document CHEMBL5316350, “Novel Pyrido[2',1':2,3]imidazo[4,5-c]quinoline Derivative Selectively Poisons Leishmania donovani Bisubunit Topoisomerase 1 to Inhibit the Antimony-Resistant Leishmania Infection in Vivo” (J Med Chem, 2023).
Calls of active or inactive are those of the source. The rule behind the calls is not given here.

Legend:
Leishmania donovani [1] = assay: Induction of cell cycle arrest in Leishmania donovani Ag83 promastigotes assessed as accumulation of cells in S/G2 phase at 5 uM by PI staining based flow cytometry; type: functional, organism-based; conditions: time 6-24 hrs
[2] = target: T1, DNA topoisomerase I (Leishmania donovani (strain BPK282A1)) (UniProt E9BRC0); assay: Inhibition of Leishmania donovani recombinant Top1 preincubated with compound for 5 mins followed by plasmid DNA addition at 1 to 10 uM measured after 30 mins; conditions: dose 1-10 µM
T1 sequence (whole entry): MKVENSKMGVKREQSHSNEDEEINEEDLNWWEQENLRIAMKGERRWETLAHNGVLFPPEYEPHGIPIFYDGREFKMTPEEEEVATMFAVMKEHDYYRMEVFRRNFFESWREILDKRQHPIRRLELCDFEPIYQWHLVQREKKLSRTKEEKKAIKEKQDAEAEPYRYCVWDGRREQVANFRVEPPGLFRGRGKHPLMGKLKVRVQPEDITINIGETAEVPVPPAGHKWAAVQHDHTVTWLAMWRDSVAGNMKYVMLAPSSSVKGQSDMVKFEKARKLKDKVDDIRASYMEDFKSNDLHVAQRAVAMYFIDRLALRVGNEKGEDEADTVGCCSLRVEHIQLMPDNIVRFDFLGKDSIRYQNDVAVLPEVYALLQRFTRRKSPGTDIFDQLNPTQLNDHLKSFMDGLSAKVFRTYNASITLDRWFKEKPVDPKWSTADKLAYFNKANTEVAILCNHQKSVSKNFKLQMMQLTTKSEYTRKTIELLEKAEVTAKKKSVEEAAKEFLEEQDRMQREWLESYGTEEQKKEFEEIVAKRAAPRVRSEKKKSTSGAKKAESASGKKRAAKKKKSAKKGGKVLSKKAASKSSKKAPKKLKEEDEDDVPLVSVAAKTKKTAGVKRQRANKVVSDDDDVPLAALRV

[3] = target: T2, DNA topoisomerase 1 (Homo sapiens) (UniProt P11387); assay: Inhibition of human recombinant Top1 infected in Sf9 cells assessed as plasmid DNA relaxation upto 100 uM measured after 30 mins
T2 sequence (whole entry): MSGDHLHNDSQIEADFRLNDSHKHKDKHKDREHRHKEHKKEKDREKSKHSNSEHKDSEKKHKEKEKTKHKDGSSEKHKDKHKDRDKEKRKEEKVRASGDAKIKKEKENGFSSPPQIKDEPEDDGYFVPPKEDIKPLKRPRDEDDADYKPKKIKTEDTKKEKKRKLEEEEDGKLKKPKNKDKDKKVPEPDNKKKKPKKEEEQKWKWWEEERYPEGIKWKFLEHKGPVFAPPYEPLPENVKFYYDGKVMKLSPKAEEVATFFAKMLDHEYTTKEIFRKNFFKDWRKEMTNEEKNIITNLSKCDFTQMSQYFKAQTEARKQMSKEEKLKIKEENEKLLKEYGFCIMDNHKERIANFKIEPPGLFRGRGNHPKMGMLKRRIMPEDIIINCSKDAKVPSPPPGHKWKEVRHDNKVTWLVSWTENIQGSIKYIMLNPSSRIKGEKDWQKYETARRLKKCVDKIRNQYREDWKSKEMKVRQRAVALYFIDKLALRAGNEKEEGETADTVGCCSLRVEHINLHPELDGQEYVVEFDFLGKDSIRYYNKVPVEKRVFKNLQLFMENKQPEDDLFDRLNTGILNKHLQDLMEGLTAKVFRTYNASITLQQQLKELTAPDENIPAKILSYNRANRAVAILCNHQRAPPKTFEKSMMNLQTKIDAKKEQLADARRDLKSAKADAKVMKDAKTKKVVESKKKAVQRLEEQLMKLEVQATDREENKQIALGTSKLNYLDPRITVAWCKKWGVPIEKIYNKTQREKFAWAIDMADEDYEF

Leishmania donovani [4] = assay: Stabilization of Leishmania donovani recombinant topoisomerase I/25-mer duplex oligonucleotide DNA complex assessed as fold change in stabilization at 5 to 25 uM measured after 30 mins; conditions: dose 5-25 µM
Leishmania donovani [5] = assay: Induction of cell cycle arrest in Leishmania donovani Ag83 promastigotes assessed as decrease in accumulation of cells in G2/M phase at 5 uM measured after 12 hrs by PI staining based flow cytometry (reference value: 15.1 %); type: functional; design: scale not given: the % may be the effect or the level left
MCF7 = assay: Induction of cell cycle arrest in human MCF7 cells measured at 5 uM upto 24 hrs by PI staining based flow cytometry; type: functional
Leishmania donovani [6] = assay: Induction of apoptosis in Leishmania donovani Ag83 promastigotes assessed as early apoptotic cells measured at 5 uM after 24 hrs by Annexin V-FITC/PI staining based flow cytometric analysis (reference value: 0.00%); type: functional
Leishmania donovani [7] = assay: Antileishmanial activity in Leishmania donovani Ag83 promastigotes assessed as persistent Top1cc-induced DNA breakdown by measuring TUNEL positive cells treated for 6 to 12 hrs followed by compound removal measured after 6 to 12 hrs by confocal microscopic analysis relative to camptothecin; type: functional, organism-based; conditions: time 6-12 hrs
[8] = target: T1, DNA topoisomerase I (Leishmania donovani (strain BPK282A1)); assay: Binding affinity to antimony resistant Leishmania donovani BHU575 promastigotes recombinant topoisomerase I assessed as fold change in stabilization of cleavage complex at 5 to 50 uM measured after 30 mins relative to camptothecin; conditions: dose 5-50 µM
Leishmania donovani [9] = assay: Induction of cell cycle arrest in antimony resistant Leishmania donovani BHU575 promastigotes assessed as decrease in accumulation of cells in G0/G1 phase at 5 uM measured after 12 hrs by PI staining based flow cytometry (reference value: 80.7%); type: functional; design: scale not given: the % may be the effect or the level left
Leishmania donovani [10] = assay: Induction of cell cycle arrest in antimony resistant Leishmania donovani BHU575 promastigotes assessed as decrease in accumulation of cells in S phase at 5 uM measured after 24 hrs by PI staining based flow cytometry (reference value: 9.8%); type: functional; design: scale not given: the % may be the effect or the level left
Leishmania donovani [11] = assay: Induction of cell cycle arrest in antimony resistant Leishmania donovani BHU575 promastigotes assessed as decrease in accumulation of cells in G2/M phase at 5 uM measured after 6 hrs by PI staining based flow cytometry (reference value: 8.8%); type: functional; design: scale not given: the % may be the effect or the level left
[12] = Selectivity index ratio of EC50 for BALB/c mouse macrophage to ratio of EC50 for antileishmanial activity against Leishmania amastigotes; type: toxicity; conditions: mouse macrophages, read-out: Ratio EC50
[13] = Toxicity in BALB/c mouse infected with Antimony resistant Leishmania donovani BHU575 promastigotes assessed as change in body weight treated after 3 weeks of infection at 5 to 10 mg/kg, ip twice a week for 3 weeks; type: organism-based; conditions: in vivo, dose 5-10 mg/kg
Leishmania donovani [14] = assay: Antileishmanial activity against Leishmania donovani Ag83 promastigotes infected in BALB/c mouse assessed as reduction of amastigote burden in liver treated after 3 weeks of infection at 5 to 10 mg/kg, ip twice a week for 3 weeks by Giemsa staining stamp-smear based limiting dilution assay; type: functional, organism-based; conditions: dose 5-10 mg/kg
Leishmania donovani [15] = assay: Antileishmanial activity against antimony resistant Leishmania donovani BHU575 promastigotes infected in BALB/c mouse assessed as reduction of amastigote burden by measuring parasite count in spleen treated after 3 weeks of infection at 5 to 10 mg/kg, ip twice a week for 3 weeks by qPCR based kineto-plastid DNA; type: functional, organism-based; conditions: dose 5-10 mg/kg
Leishmania donovani [16] = assay: Antileishmanial activity against Leishmania donovani Ag83 promastigotes infected in BALB/c mouse model of visceral leishmaniasis assessed as fold change in T-helper type 1 immunological evoke response in splenocytes by measuring decrease in IL-10 level treated after 3 weeks of infection at 5 to 10 mg/kg, ip twice a week for 3 weeks by RT-PCR analysis; type: functional; conditions: dose 5-10 mg/kg

**Q.** Which results are given for `COc1cc(-c2nc3ccccc3c3nc4ccccn4c23)cc(OC)c1OC`?
**A.** Activity (Leishmania donovani [1]): Dose-Dependent Effect; inhibition [2]: inactive; inhibition [3]: inactive; fold change (FC) (Leishmania donovani [4]): 2; Activity (Leishmania donovani [5]): 14.5%; Activity (MCF7): inactive; Activity (Leishmania donovani [6]): 4.9%; Activity (Leishmania donovani [7]): Active; fold change (FC) [8]: 5; Activity (Leishmania donovani [9]): 46%; Activity (Leishmania donovani [10]): 22.3%; Activity (Leishmania donovani [11]): 2.6%; selectivity ratio [12]: 9.25; Activity [13]: Non-Toxic; Activity (Leishmania donovani [14]): Active; Activity (Leishmania donovani [15]): Active; fold change (FC) (Leishmania donovani [16]): 2
